Experimental data reported in PMC10650850, “Discovery, Structure–Activity Relationship and In Vitro Anticancer Activity of Small-Molecule Inhibitors of the Protein–Protein Interactions between AF9/ENL and AF4 or DOT1L” (Cancers, 2023).
Structures can show the parent of a compound that is named as a salt.

How the values were obtained:
[1] = target: T1, AF9-DOT1L interaction (Homo sapiens, UniProt P42568); assay: AlphaLisa assay, AF9-DOT1L interaction; assay type: binding; conditions: MBP-protein 5 nM, biotinylated peptide 40 nM, 3 independent experiments with standard deviation, read-out: IC50 (μM) against the AF9-DOT1L interaction
T1 construct: human AF9 AHD domain (475–568); made in house; host or cells: E. coli BL21(DE3)
T1 sequence (P42568 475-568): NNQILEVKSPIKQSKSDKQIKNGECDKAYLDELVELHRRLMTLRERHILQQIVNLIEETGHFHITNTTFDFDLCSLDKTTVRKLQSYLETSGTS
Text: An AlphaLisa assay we previously developed was used for compound screening for inhibitors of the AF9-DOT1L interaction. The PPI takes the DOT1L-peptide coated donor beads and AF9 AHD coated acceptor beads together. The donor beads are illuminated with a laser beam (680 nm) to generate singlet oxygen radicals, which activate the adjacent acceptor beads to produce luminescence at 615 nm. When a compound can disrupt such PPI and separate the donor and acceptor beads, the highly unstable radicals are rapidly quenched by water without generating luminescence.
(§1) The cDNA for the human AF9 AHD domain (475–568) and ENL AHD domain (489–559) was synthesized (by Genscript, Piscataway, NJ, USA) and inserted into the pMAL c5X expression plasmid. The DOT1L peptide (Biotin-AHX-[…]) and AF4 peptide (Biotin-AHX-[…]) for the Alpha assay were purchased from Genscript.
(§2) Alpha assays were developed in our previous publication, using a Perkin-Elmer AlphaLisa anti-MBP kit, which contains streptavidin donor beads and anti-MBP acceptor beads. Briefly, the assay was performed using a MBP-protein (5 nM), a biotinylated peptide (40 nM), and increasing concentrations of a compound in 25 µL buffer (PBS with 0.5% BSA, pH 7.5) in 384-well plates according to the manufacturer’s protocol and measured with a Tecan SPARK microplate reader. Data were imported into Prism (version 5.0), and IC50 values from 3 independent experiments with standard deviation were obtained by using a standard dose-response curve fitting.

[2] = tested on: MV4;11; assay: Antiproliferation assay (XTT), MV4;11; assay type: cell-based; conditions: Homo sapiens, MV4-11, 168 h, 7 days incubation, read-out: Antitumor activity EC50, MV4;11;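 further: EC50 values in Micromolar not Nanomolar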
Description: (§3) The antitumor activity of selected compounds was evaluated against the proliferation of a panel of MLL-r leukemia and other cancer cells. MV4;11 and Molm-13 leukemia cells contain MLL-AF4 and MLL-AF9 fusion oncogenes, respectively. NB4 and HL60 are AML cells without MLL translocation. Hela (cervical cancer) is a solid tumor cell line. […] The anti-proliferation activity of these compounds against other AML cells (i.e., NB4 and HL60) might be due to their inhibition of SEC-mediated gene expression (e.g., Myc), as observed in our previous studies.
(§4) Proliferation inhibition assays were performed using an XTT assay kit (Biotium, Fremont, CA, USA) following our previous methods. The antiproliferation EC50 values were determined using Prism 5 and the reported results were the mean values of at least three independent experiments. The incubation time for all compounds was 7 days.

[3] = tested on: Molm13; assay: Antiproliferation assay (XTT), Molm-13; assay type: cell-based; conditions: Homo sapiens, MOLM-13, 168 h, 7 days incubation, read-out: Antitumor activity EC50, Molm13;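 further: EC50 values in Micromolar not Nanomolar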
Description: as §3, §4

[4] = tested on: NB4; assay: Antiproliferation assay (XTT), NB4; assay type: cell-based; conditions: Homo sapiens, NB-4, 168 h, 7 days incubation, read-out: Antitumor activity EC50, NB4;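 further: EC50 values in Micromolar not Nanomolar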
Description: as §3, §4

[5] = tested on: HL60; assay: Antiproliferation assay (XTT), HL60; assay type: cell-based; conditions: Homo sapiens, HL-60, 168 h, 7 days incubation, read-out: Antitumor activity EC50, HL60;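 further: EC50 values in Micromolar not Nanomolar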
Description: as §3, §4

[6] = tested on: Hela; assay: Antiproliferation assay (XTT), Hela; assay type: cell-based; conditions: 7 days incubation; for EC50: Homo sapiens, HeLa, 168 h, read-out: Antitumor activity EC50, Hela
Description: as §3, §4

[7] = tested on: panel of MLL-r leukemia and other cancer cells; assay: Antiproliferation assay (XTT), panel of MLL-r leukemia and other cancer cells; assay type: cell-based; conditions: 7 days; for EC50: 168 h, MV4;11, Molm-13, NB4 and HL60 cells, read-out: Antitumor activity EC50, span over MLL-r leukemia and AML cells; for Inhibition of tumor cell proliferation (in words): MV4;11, Molm-13, NB4, HL60 and Hela cells
Description: as §3, §4

[8] = target: T2, AF9-AF4 (Homo sapiens, UniProt P42568); assay: AlphaLisa assay, AF9-AF4 interaction; assay type: binding; conditions: AF9 AHD, AF4 peptide
T2 construct: human AF9 AHD domain (475–568); made in house; host or cells: E. coli BL21(DE3)
T2 sequence (P42568 475-568): T1 sequence (P42568 475-568)
Description: (§5) Transcription cofactor AF4, which is the most frequent (~35%) fusion protein in MLL1-r leukemia, is another binding partner of AF9/ENL [35, 36, 37]. The AF9/ENL-AF4 interactions are essential for the formation of SEC, which causes aberrant gene expression in MLL-r leukemia and other AMLs. Using our previously developed AlphaLisa assays, selected compounds were tested for their ability to inhibit the PPIs between AF9 or ENL and AF4.
as §1, §2

[9] = target: T3, ENL-AF4 (Homo sapiens, UniProt Q03111); assay: AlphaLisa assay, ENL-AF4 interaction; assay type: binding; conditions: ENL AHD, AF4 peptide
T3 construct: ENL AHD domain (489–559); made in house; host or cells: E. coli BL21(DE3)
T3 sequence (Q03111 489-559): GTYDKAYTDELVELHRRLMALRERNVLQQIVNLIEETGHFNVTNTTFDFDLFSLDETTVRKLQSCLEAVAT
Description: as §5, §1, §2

SMILES	IC50 [1] [µM]	EC50 [2] [µM]	EC50 [3] [µM]	EC50 [4] [µM]	EC50 [5] [µM]	Antitumor activity EC50, Hela [6]	EC50 [6] [µM]	EC50 [7] [µM]	Inhibition of tumor cell proliferation (in words) [7]	IC50 [8] [µM]	IC50 AF9-AF4 [8]	IC50 [9] [µM]	IC50 ENL-AF4 [9]
Cl.O=C(NCC1CCNCC1)c1coc2cc(-c3ccc(N4CCCCC4)cc3)ccc12 [Compound 57, 6-(4-(Piperidin-1-yl)phenyl)-N-(piperidin-4-ylmethyl)-benzofuran-3-carboxamide hydrochloride]	7.2 ± 0.4	21 ± 1.2	13 ± 1.7	11 ± 0.4	9.7 ± 1.2	did not affect the growth of Hela cells	50	9.7 to 21	–	–	–	–	–
O=C(NCC1CCNCC1)c1c[nH]c2cc(-c3ccc(N4CCCCC4)cc3)ccc12 [Compound 2, 6-(4-(Piperidin-1-yl)phenyl)-N-(piperidin-4-ylmethyl)-1H-indole-3-carboxamide hydrochloride]	4.5 ± 0.01	33 ± 2.8	29 ± 2.5	32 ± 2	50	–	> 50	–	–	–	–	–	–
Cl.NCc1ccc(-c2ccc3cc(C(=O)NCC4CCNCC4)oc3c2)cc1 [Compound 72, 6-(4-(Aminomethyl)phenyl)-N-(piperidin-4-ylmethyl)-benzofuran-2-carboxamide hydrochloride]	> 30	~50	> 50	> 50	> 50	–	> 50	–	None of these three compounds inhibited tumor cell proliferation	–	–	–	–
O=C(NCC1CCNCC1)c1cc2cc(-c3cn[nH]c3)ccc2[nH]1 [Compound 22]	> 30	> 50	> 50	> 50	> 50	–	> 50	–	None of these three compounds inhibited tumor cell proliferation	> 50	did not inhibit	> 50	did not inhibit
O=C(NCC1CCNCC1)c1cc2cc(-c3ccc(N4CCCCC4)cc3)ccc2[nH]1 [Compound 15]	3.6 ± 0.3	22 ± 2	10 ± 1.6	> 50	50	–	> 50	–	–	–	–	–	–
O=C(NCC1CCNCC1)c1cc2ccc(-c3ccc(N4CCCC4)cc3)cc2s1 [Compound 25, 6-(4-(Pyrrolindin-1-yl)phenyl)-N-(piperidin-4-ylmethyl)-benzo[b]thiophene-2-carboxamide hydrochloride]	5.3 ± 0.1	8.7 ± 0.9	9.4 ± 0.8	10 ± 0.5	26 ± 2.6	–	50	8.7 to 26	–	7.7 ± 0.9	–	7.9 ± 1.5	–
O=C(NCC1CCNCC1)c1cc2cc(-c3ccc(N4CCCC4)cc3)ccc2[nH]1 [Compound 16]	2.7 ± 0.2	–	–	–	–	–	–	–	–	1.9 ± 0.1	–	1.9 ± 0.3	–
O=C(NCC1CCNCC1)c1c[nH]c2cc(-c3ccc(N4CCCC4)cc3)ccc12 [Compound 12, 6-(4-(Pyrrolidin-1-yl)phenyl)-N-(piperidin-4-ylmethyl)-1H-indole-3-carboxamide hydrochloride]	2.9 ± 0.1	26 ± 1.8	50	50	50	–	> 50	–	–	–	–	–	–
